Assay results taken from PubChem BioAssay (NCI).
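Assay format: 96-well plates, 48-hour exposure. At the GI50, growth is halved. TGI marks complete inhibition of growth.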

Legend:
Assay in all cases: NCI anticancer screen, dose series, 48 h
HOP-92 NSCLC = system: HOP-92 NSCLC
SR leukemia = system: SR leukemia
MALME-3M melanoma = system: MALME-3M melanoma
HL-60(TB) leukemia = system: HL-60(TB) leukemia
A549 NSCLC = system: A549 NSCLC
UO-31 renal = system: UO-31 renal
U251 CNS = system: U251 CNS
SN12C renal = system: SN12C renal
OVCAR-8 ovarian = system: OVCAR-8 ovarian
RXF 393 renal = system: RXF 393 renal

SMILES	GI50 (HOP-92 NSCLC) [µM]	TGI (HOP-92 NSCLC) [µM]	GI50 (SR leukemia) [µM]	TGI (SR leukemia) [µM]	GI50 (MALME-3M melanoma) [µM]	TGI (MALME-3M melanoma) [µM]	GI50 (HL-60(TB) leukemia) [µM]	TGI (HL-60(TB) leukemia) [µM]	GI50 (A549 NSCLC) [µM]	TGI (A549 NSCLC) [µM]	GI50 (UO-31 renal) [µM]	TGI (UO-31 renal) [µM]	GI50 (U251 CNS) [µM]	TGI (U251 CNS) [µM]	GI50 (SN12C renal) [µM]	TGI (SN12C renal) [µM]	GI50 (OVCAR-8 ovarian) [µM]	TGI (OVCAR-8 ovarian) [µM]	GI50 (RXF 393 renal) [µM]	TGI (RXF 393 renal) [µM]
COc1ccccc1N1CCN(CCCn2c(=O)c3c(OC)nc(C)cc3c(=O)n2-c2ccccc2)CC1	> 100	> 100	> 100	> 100	> 100	> 100	> 100	> 100	> 100	> 100	> 100	> 100	> 100	> 100	> 100	> 100	–	–	–	–
COc1ccncc1C#Cc1cncc(C(=O)Nc2ccc(CN3CCN(C)CC3)c(C(F)(F)F)c2)c1	4.83	57.2	–	–	4.3	23.3	7.4	46.7	27.4	> 100	15.4	> 100	35.6	> 100	16.8	> 100	27.1	> 100	15.7	49.5
O=c1c2ccccc2sc2cccc(NCCCN3CCN(CCCNc4cccc5sc6ccccc6c(=O)c45)CC3)c12	–	–	–	> 100	–	> 100	–	> 100	–	> 100	–	> 100	–	> 100	–	> 100	–	–	–	> 100
CCOC(=O)C(C)(C)Oc1ccc2c(C)c(-c3ccc(Cl)cc3)c(=O)oc2c1	–	–	–	> 100	–	> 100	–	> 100	–	> 100	–	> 100	–	> 100	–	> 100	–	> 100	–	> 100
O=C1CC(C[C@H](O)C2CCCCC2O)CC(=O)N1Cc1ccccc1 (stereo partly specified)	–	–	–	> 100	–	> 100	–	> 100	–	> 100	–	> 100	–	> 100	–	> 100	–	> 100	–	> 100
Cn1cnc([N+](=O)[O-])c1S(=O)(=O)Oc1ccccc1	5.85	19.1	–	–	2.14	4.32	12.1	34.4	38.1	> 100	1.68	3.47	23.5	> 66.3	21.5	> 71.7	22.6	> 92.7	2.23	6.04
Cc1ccc(Cn2c(C)nc3c2C(=O)c2ccccc2C3=O)cc1	–	–	–	> 100	–	34.3	–	41	–	34.9	–	> 100	–	22.8	–	> 100	–	28	–	28.7
O=C(Nc1cc(Cl)ccc1Cl)c1cc2cccc(Cl)c2oc1=O	–	–	–	–	–	> 100	–	> 100	–	> 100	–	–	–	> 100	–	> 100	–	> 100	–	> 100
Cc1ccc(Cl)cc1Nc1nc(C(F)(F)F)ccc1C(=O)N1CCN(c2cccc(Cl)c2)CC1	–	–	3.06	> 100	> 100	> 100	94.4	> 100	> 100	> 100	24.8	> 100	> 100	> 100	> 100	> 100	> 100	> 100	–	–
Cc1ccc(NC(=O)C2C(=O)N(c3ccc(C)c(C)c3)C(=O)C2N=N)cc1C (stereo unspecified)	–	> 100	–	–	–	> 100	–	> 100	–	> 100	–	> 100	–	> 100	–	> 100	–	> 100	–	> 100
O=C(NCCCCN=c1cccccc1NCCCCNC(=O)OCc1ccccc1)OCc1ccccc1	–	20.1	–	–	–	40.6	–	31.3	–	74.6	–	21.4	–	32.1	–	51.6	–	47.7	–	40.4
Cc1c(Cl)cccc1N1C(=O)C(Cl)=C(Cl)C1=O	–	> 100	–	79.6	–	> 100	–	–	–	> 100	–	> 100	–	> 100	–	> 100	–	> 100	–	97.2
C[C@H]1NC(=O)C2CCCCN2C(=O)CN(C)C(=O)CNC(=O)C2CCCCN2C(=O)[C@@H](NC(=O)c2nc3ccccc3cc2O)[C@@H](C)NC(=O)C2CCCCN2C(=O)CN(C)C(=O)CNC(=O)[C@@H]2CCCCN2C(=O)C1NC(=O)c1nc2ccccc2cc1O (stereo partly specified)	–	–	–	–	–	0.388	–	4.72	–	> 100	–	0.984	–	36.6	–	> 100	–	> 100	–	0.199
O=C(O)[C@H](NS(=O)(=O)c1ccc2ccccc2c1)c1ccccc1	–	> 100	–	–	–	> 100	–	> 100	–	–	–	> 100	–	> 100	–	> 100	–	–	–	> 100
CCOc1ccc2nc(S/C(=C/C=C(C#N)C#N)c3ccc(C)cc3)sc2c1	–	–	2.92	7.43	33	> 100	4.55	20.4	46.7	> 100	36.2	> 100	29.4	> 100	18.1	46.4	32.8	> 100	19.9	46.7
CCOC(=O)NC(=O)c1cn(CCOC(=O)NCCCCCCNC(=O)OCCn2cc(C(=O)NC(=O)OCC)c(=O)[nH]c2=O)c(=O)[nH]c1=O	–	–	–	–	–	> 100	–	> 100	–	> 100	–	> 100	–	> 100	–	> 100	–	> 100	–	> 100
CCOc1ccc(N2C(=O)/C(=C/c3ccc(N(CCC#N)CCC#N)cc3)N=C2c2cc([N+](=O)[O-])ccc2Cl)cc1	–	–	–	–	–	–	–	> 100	–	> 100	–	> 100	–	> 100	–	> 100	–	> 100	–	> 100
NS(=O)(=O)c1ccc(N(/C=C/C(=O)C(F)(F)F)CC(=O)c2ccc(Cl)cc2)cc1	22.3	86.7	–	–	24.9	92.6	–	–	49.7	> 100	45.3	> 100	33	> 100	29.3	> 100	43.4	> 100	> 100	> 100
